Experimental data published in patent US8486885B2, “β-arrestin effectors and compositions and methods of use thereof” (Trevena, Inc., priority 2008, dated 2013).
Non-standard residues stand in square brackets, D forms with d. Residues, ends and D or L forms follow the SMILES beside them. Sar = CNCC(=O)O

What was measured:
Format in all cases: cell-based
[1] = target: T1, human angiotensin 2 type 1 receptor (human AT1R) (Homo sapiens, UniProt P30556); test: IP1 accumulation assay (IP-One Tb), human AT1R; conditions: cells expressing human AT1R
T1 construct: expressed in transfected cells
T1 sequence (P30556 1-359): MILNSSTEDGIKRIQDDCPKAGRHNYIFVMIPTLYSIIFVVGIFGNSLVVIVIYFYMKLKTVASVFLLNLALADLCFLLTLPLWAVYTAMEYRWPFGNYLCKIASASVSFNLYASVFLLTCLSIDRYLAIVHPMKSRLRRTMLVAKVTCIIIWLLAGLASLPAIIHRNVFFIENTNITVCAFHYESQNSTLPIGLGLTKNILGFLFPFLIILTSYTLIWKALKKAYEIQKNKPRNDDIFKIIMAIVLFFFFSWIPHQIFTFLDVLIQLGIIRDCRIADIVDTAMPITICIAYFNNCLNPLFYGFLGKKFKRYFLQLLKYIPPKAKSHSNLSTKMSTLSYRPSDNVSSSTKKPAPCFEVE
Procedure: (§1) A secondary measure of G protein coupling efficacy was also performed. IP3 is generated by activation of phospholipase C by Gα-q. IP3 is degraded to IP1, which can be forced to accumulate in cells by blocking degradation with lithium chloride. Thus we measured accumulation of IP1 to determine ligand efficacy for G protein activation.
(§2) IP1 accumulation generated by human and rat angiotensin 2 type 1 receptor (human AT1R and rat AT1aR, respectively) was measured with IP-One Tb kits purchased from Cisbio and used per the manufacturer's instructions. Clonal stably transfected cell lines expressing human AT1TR or rat AT1aR were used for all experiments.
(§3) For assays, 4,000 cells were seeded per well in 384-well small-volume microplates in volumes of 20 uL and allowed to grow overnight at 37° C. in 5% CO2. Cell growth media was then replaced with stimulation buffer supplied by Cisbio containing 50 mM lithium chloride. Peptides TRV-120,001 through TRV-120,035 were dissolved in deionized water to a concentration of 1 mM. For agonist detection, peptides were then further diluted in stimulation buffer to add peptide to the cells to reach final concentrations ranging from 10 uM to 1 pM. […] Following addition of peptides, cells were incubated at 37° C. in 5% CO2 for 30 minutes and then lysed with detection reagents added per manufacturer's instructions.

[2] = target: human angiotensin 2 type 1 receptor (human AT1R) (Homo sapiens, UniProt P30556); test: PathHunter β-arrestin-2 recruitment assay, human AT1R; conditions: PathHunter β-arrestin HEK293 cells
Procedure: (§4) The proximal event in β-arrestin function mediated by GPCRs is recruitment to receptors following ligand binding and receptor phosphorylation by GRK's. Thus, the measure of β-arrestin recruitment was used to determine ligand efficacy for β-arrestin function.
(§5) B-arrestin-2 recruitment to the human and rat angiotensin 2 type 1 receptor (human AT1R and rat AT1aR, respectively) was measured with the PathHunter™ β-arrestin assay (DiscoveRx Corporation, Fremont Calif.). Cells, plasmid(s), and detection reagent(s) were purchased from DiscoveRx, and assays were performed per manufacturer's instructions. Human AT1R and rat AT1aR were cloned into the pCMV-ProLink vector, verified by sequencing, and transfected into PathHunter β-arrestin HEK293 cells. Stably transfected clonal cell lines were selected with Hygromycin and G418. These clonal cell lines were used for all experiments.
(§6) For assays, 25,000 cells were seeded per well in 96-well microplates in volumes of 90 μL and allowed to grow overnight at 37° C. in 5% CO2. Peptides of the invention were dissolved in deionized water to a concentration of 1 mM. Peptides were then further diluted in assay buffer (Hank's balanced salt solution with 20 mM HEPES) to add peptide to the cells to reach final concentrations ranging from 10 μM to 1 pM. Cells were then incubated for 60 minutes at 37° C. in 5% CO2, followed by addition of 50 μL of PathHunter Detection Reagent to each well. The microplates were then incubated at room temperature for 60 minutes, and then luminescence was measured using a NOVOstar microplate reader purchased from BMG Labtech. B-arrestin-2 recruitment to receptors was measured as relative luminescence intensity expressed in arbitrary units.
Target sequence in this assay (P32121 whole entry partner, one chain of several): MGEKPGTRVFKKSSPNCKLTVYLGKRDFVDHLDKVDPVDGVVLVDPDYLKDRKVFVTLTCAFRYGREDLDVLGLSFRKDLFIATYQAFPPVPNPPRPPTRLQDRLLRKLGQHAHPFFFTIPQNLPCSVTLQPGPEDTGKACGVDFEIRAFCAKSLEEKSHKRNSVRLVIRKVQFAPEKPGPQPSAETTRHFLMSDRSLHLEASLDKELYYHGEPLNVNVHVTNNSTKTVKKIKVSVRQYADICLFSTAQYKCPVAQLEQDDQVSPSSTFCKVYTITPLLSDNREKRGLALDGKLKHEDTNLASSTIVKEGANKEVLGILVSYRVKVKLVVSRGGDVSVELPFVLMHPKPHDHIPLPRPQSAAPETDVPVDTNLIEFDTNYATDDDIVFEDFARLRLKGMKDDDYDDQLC

[3] = target: T2, rat angiotensin 2 type 1 receptor (rat AT1aR) (Rattus norvegicus, UniProt P25095); test: IP1 accumulation assay (IP-One Tb), rat AT1aR; conditions: cells expressing rat AT1aR
T2 construct: expressed in transfected cells
T2 sequence (P25095 1-359): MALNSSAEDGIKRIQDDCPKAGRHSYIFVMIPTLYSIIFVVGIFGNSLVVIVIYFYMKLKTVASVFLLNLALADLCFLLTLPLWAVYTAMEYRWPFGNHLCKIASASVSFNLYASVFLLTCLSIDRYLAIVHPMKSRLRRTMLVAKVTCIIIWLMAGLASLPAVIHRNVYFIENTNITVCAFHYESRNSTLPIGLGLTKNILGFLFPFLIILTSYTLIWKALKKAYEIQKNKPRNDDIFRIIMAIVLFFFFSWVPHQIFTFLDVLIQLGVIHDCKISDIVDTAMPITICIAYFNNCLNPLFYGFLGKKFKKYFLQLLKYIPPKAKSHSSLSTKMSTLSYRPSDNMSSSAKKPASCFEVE
Procedure: as §1, §2, §3

[4] = target: rat angiotensin 2 type 1 receptor (rat AT1aR) (Rattus norvegicus, UniProt P25095); test: PathHunter β-arrestin-2 recruitment assay, rat AT1aR; conditions: PathHunter β-arrestin HEK293 cells
Procedure: as §4, §5, §6
Target sequence in this assay (P32121 whole entry partner, one chain of several): as the sequence (P32121 whole entry partner, one chain of several) above

SMILES | human AT1R IP One Max (%) [1] | human AT1R b-arrestin2 Max (%) [2] | EC50 [3] | rat AT1aR IP One Max (%) [3] | rat AT1aR b-arrestin2 Max (%) [4] | EC50 ([4]; read-out: rat AT1aR b-arrestin2 EC50)
CNCC(=O)N[C@@H](CCCNC(=N)N)C(=O)N[C@H](C(=O)N[C@@H](Cc1ccc(O)cc1)C(=O)N[C@H](C(=O)N[C@@H](Cc1c[nH]cn1)C(N)=O)C(C)C)C(C)C [SEQ ID NO:55, Sar-Arg-Val-Tyr-Val-His-NH2] (H-[Sar]RVYVH-NH2; N-terminus assumed) | 97.6% | 92.7% | 6.8 nM | 98.8% | 95.6% | 
CC[C@H](C)[C@H](NC(=O)[C@H](Cc1ccc(O)cc1)NC(=O)[C@@H](NC(=O)[C@H](CCCNC(=N)N)NC(=O)[C@@H](N)CC(=O)O)C(C)C)C(=O)N[C@@H](Cc1c[nH]cn1)C(=O)N1CCC[C@H]1C(=O)NCC(=O)O [SEQ ID NO:56] (H-DRVYIHPG-OH; N-terminus assumed) | 96.5% | 104.4% |  | 98.4% | 98.5% | 160 nM
